Several values for one entry are separate records, joined by “and”; a condition that tells them apart may be missing. Equal entries are not always repeated. Toxic doses and inconclusive results are not listed. Rule as the data show it: active = T/C of 150% or more; inactive = T/C below 125%.
Tested on: L1210 leukemia ip in BDF1 mice, survival T/C
Test: NCI In Vivo Anticancer Drug Screen. Data for tumor model L1210 Leukemia (intraperitoneal) in B6D2F1 (BDF1) mice
Settings: endpoint: mean survival time, higher = longer survival
Method in brief: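 Survival endpoint. Drug-treated group vs vehicle group, expressed as T divided by C. Tumor passaged by transplantation.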

[1] = dose: 75.0 mg/kg/injection, schedule: Q01DX001 (ip), vehicle: saline
[2] = dose: 100.0 mg/kg/injection, schedule: Q01DX001 (ip), vehicle: saline
[3] = dose: 200.0 mg/kg/injection, schedule: Q01DX001 (ip), vehicle: saline
[4] = dose: 400.0 mg/kg/injection, schedule: Q01DX001 (ip), vehicle: saline
[5] = dose: 25.0 mg/kg/injection, schedule: Q01DX009 (ip), vehicle: saline
[6] = dose: 25.0 mg/kg/injection, schedule: Q04DX003 (ip), vehicle: saline
[7] = dose: 50.0 mg/kg/injection, schedule: Q01DX009 (ip), vehicle: saline
[8] = dose: 100.0 mg/kg/injection, schedule: Q01DX009 (ip), vehicle: saline
[9] = dose: 200.0 mg/kg/injection, schedule: Q01DX009 (ip), vehicle: saline
[10] = dose: 400.0 mg/kg/injection, schedule: Q01DX009 (ip), vehicle: saline
[11] = dose: 50.0 mg/kg/injection, schedule: Q01DX001 (ip), vehicle: saline
[12] = dose: 100.0 mg/kg/injection, schedule: Q01DX001 (ip), vehicle: carboxymethylcellulose (CMC)
[13] = dose: 200.0 mg/kg/injection, schedule: Q01DX001 (ip), vehicle: carboxymethylcellulose (CMC)
[14] = dose: 400.0 mg/kg/injection, schedule: Q01DX001 (ip), vehicle: carboxymethylcellulose (CMC)
[15] = dose: 100.0 mg/kg/injection, schedule: Q04DX003 (ip), vehicle: acetone
[16] = dose: 200.0 mg/kg/injection, schedule: Q04DX003 (ip), vehicle: acetone
[17] = dose: 100.0 mg/kg/injection, schedule: Q04DX003 (ip), vehicle: saline with Tween-80
[18] = dose: 200.0 mg/kg/injection, schedule: Q04DX003 (ip), vehicle: saline with Tween-80
[19] = dose: 400.0 mg/kg/injection, schedule: Q04DX003 (ip), vehicle: saline with Tween-80
[20] = dose: 100.0 mg/kg/injection, schedule: Q04DX003 (ip), vehicle: Klucel (hydroxypropylcellulose) (HPC)
[21] = dose: 200.0 mg/kg/injection, schedule: Q04DX003 (ip), vehicle: Klucel (hydroxypropylcellulose) (HPC)
[22] = dose: 400.0 mg/kg/injection, schedule: Q04DX003 (ip), vehicle: Klucel (hydroxypropylcellulose) (HPC)
[23] = dose: 100.0 mg/kg/injection, schedule: Q01DX009 (ip), vehicle: saline with Tween-80
[24] = dose: 200.0 mg/kg/injection, schedule: Q01DX009 (ip), vehicle: saline with Tween-80
[25] = dose: 400.0 mg/kg/injection, schedule: Q01DX009 (ip), vehicle: saline with Tween-80
[26] = dose: 100.0 mg/kg/injection, schedule: Q01DX009 (ip), vehicle: Klucel (hydroxypropylcellulose) (HPC)
[27] = dose: 200.0 mg/kg/injection, schedule: Q01DX009 (ip), vehicle: Klucel (hydroxypropylcellulose) (HPC)
[28] = dose: 400.0 mg/kg/injection, schedule: Q01DX009 (ip), vehicle: Klucel (hydroxypropylcellulose) (HPC)
[29] = dose: 100.0 mg/kg/injection, schedule: Q04DX002 (ip), vehicle: saline with Tween-80

Measured: T/C

CCC(CC)=NNS(=O)(=O)c1ccccc1
inactive: [1] 100 % of control | dose: 150.0 mg/kg/injection, schedule: Q01DX001 (ip), vehicle: saline 100 % of control | dose: 300.0 mg/kg/injection, schedule: Q01DX001 (ip), vehicle: saline 102 % of control

S=C(N/N=C/c1ccc2c(c1)OCO2)Nc1cccc2cccnc12
inactive: [2] 105 % of control | [3] 88 % of control | [4] 96 % of control

C#CC(C)(C)OCC1CO1 (configuration not stated)
inactive: [5] 93 % of control | [6] 101 % of control | [7] 90 % of control | dose: 50.0 mg/kg/injection, schedule: Q04DX003 (ip), vehicle: saline 113 % of control | [8] 102 % of control | dose: 100.0 mg/kg/injection, schedule: Q04DX003 (ip), vehicle: saline 108 % of control | [9] 108 % of control | dose: 200.0 mg/kg/injection, schedule: Q04DX003 (ip), vehicle: saline 95 % of control | [10] 93 % of control | dose: 400.0 mg/kg/injection, schedule: Q04DX003 (ip), vehicle: saline 106 % of control

O=S(=O)(O)CCCN1CCCCC1
inactive: [8] 107 % of control | [9] 112 % of control | [10] 98 % of control

COc1ccc(CN2CCCN(Cc3ccc(OC)cc3OC)C2c2cc(Br)ccc2O)c(OC)c1
inactive: [11] 97 % of control | [2] 90 % of control | [3] 92 % of control | [4] 92 % of control

CCOC(=O)CNC(=O)Oc1cc(C)c(Cl)cc1C
inactive: [12] 100 % of control and 110 % of control | dose: 100.0 mg/kg/injection, schedule: Q01DX009 (ip), vehicle: carboxymethylcellulose (CMC) 89 % of control | dose: 100.0 mg/kg/injection, schedule: Q04DX002 (ip), vehicle: carboxymethylcellulose (CMC) 93 % of control and 96 % of control | dose: 100.0 mg/kg/injection, schedule: Q04DX003 (ip), vehicle: carboxymethylcellulose (CMC) 101 % of control and 90 % of control | [13] 106 % of control and 109 % of control | dose: 200.0 mg/kg/injection, schedule: Q01DX009 (ip), vehicle: carboxymethylcellulose (CMC) 95 % of control | dose: 200.0 mg/kg/injection, schedule: Q04DX002 (ip), vehicle: carboxymethylcellulose (CMC) 98 % of control and 99 % of control | dose: 200.0 mg/kg/injection, schedule: Q04DX003 (ip), vehicle: carboxymethylcellulose (CMC) 94 % of control and 103 % of control | [14] 102 % of control and 103 % of control | dose: 400.0 mg/kg/injection, schedule: Q01DX009 (ip), vehicle: carboxymethylcellulose (CMC) 100 % of control | dose: 400.0 mg/kg/injection, schedule: Q04DX002 (ip), vehicle: carboxymethylcellulose (CMC) 95 % of control and 99 % of control | dose: 400.0 mg/kg/injection, schedule: Q04DX003 (ip), vehicle: carboxymethylcellulose (CMC) 97 % of control and 87 % of control

c1ccc2c(c1)ccc1[s+]cccc12
inactive: [15] 100 % of control | [16] 105 % of control

O=C(Nc1cccc([N+](=O)[O-])c1)c1ccc(Cl)cc1Cl
inactive: [17] 102 % of control | [18] 93 % of control | [19] 98 % of control

CCOC(=O)NC1=NCC(C)(C)S1
inactive: [1] 97 % of control

Nc1ccc2c(c1)sc1ccccc12
inactive: [17] 88 % of control | [18] 91 % of control

COC(=O)C(CCSC)NC(=O)C(NC(=O)c1cnc2ccccc2n1)C(C)C (configuration not stated)
inactive: [12] 91 % of control | [13] 89 % of control | [14] 96 % of control

Cc1ccc(S(=O)(=O)COS(=O)(=O)C(F)(F)F)cc1
inactive: [20] 93 % of control | [21] 93 % of control

O=C(O)c1cccnc1Cl
inactive: [11] 96 % of control | [2] 93 % of control | [20] 96 % of control | [17] 105 % of control | [3] 100 % of control | [21] 97 % of control | [18] 105 % of control | [4] 106 % of control | [22] 91 % of control | [19] 106 % of control

Nc1cc(Cl)ccc1N1CCCCC1
inactive: [23] 114 % of control | [24] 97 % of control | [25] 106 % of control

Cc1cc(C)c([N+](=O)[O-])c(C)c1
inactive: [26] 104 % of control | [27] 97 % of control | [28] 92 % of control

O=C(CCCl)NC1CC1c1ccccc1 (configuration not stated)
inactive: [23] 90 % of control | [17] 97 % of control | [24] 95 % of control | [18] 97 % of control | [25] 94 % of control | [19] 95 % of control

O=C1c2cccc(S(=O)(=O)O)c2C(=O)c2cccc([N+](=O)[O-])c21
inactive: [20] 98 % of control | [21] 91 % of control | [22] 94 % of control

Cc1c(C[N+](C)(C)C)c(=O)n(-c2ccccc2)n1C
inactive: [2] 104 % of control | [3] 98 % of control | [4] 98 % of control

CCc1ccc(N=Nc2c(F)c(F)c(N)c(F)c2F)cc1
inactive: [12] 100 % of control | [13] 95 % of control | [14] 102 % of control

CC(=O)CC(=O)Nc1ccc(-c2ccc(NC(=O)CC(C)=O)c(Cl)c2)cc1Cl
inactive: [26] 95 % of control | [20] 98 % of control | [27] 97 % of control | [21] 98 % of control | [28] 93 % of control | [22] 91 % of control

CCCCNc1nnnn1CCCC
inactive: [15] 98 % of control | [16] 96 % of control

Cc1ccc(C)c(-n2nnc3ccccc3c2=O)c1
inactive: [23] 89 % of control | [17] 95 % of control | [24] 92 % of control | [18] 101 % of control | [25] 91 % of control | [19] 96 % of control

CN(C)CCC(CNC1=NCCN1)c1cccc2ccccc12 (configuration not stated)
inactive: dose: 25.0 mg/kg/injection, schedule: Q04DX002 (ip), vehicle: saline with Tween-80 108 % of control | dose: 50.0 mg/kg/injection, schedule: Q04DX002 (ip), vehicle: saline with Tween-80 101 % of control | [29] 101 % of control

CCOC(=O)c1nnn(-c2cccc(C(F)(F)F)c2)c1-c1ccccc1
inactive: dose: 100.0 mg/kg/injection, schedule: Q04DX002 (ip), vehicle: Klucel (hydroxypropylcellulose) (HPC) 101 % of control | dose: 200.0 mg/kg/injection, schedule: Q04DX002 (ip), vehicle: Klucel (hydroxypropylcellulose) (HPC) 105 % of control | dose: 400.0 mg/kg/injection, schedule: Q04DX002 (ip), vehicle: Klucel (hydroxypropylcellulose) (HPC) 96 % of control

O=NC1C(Cl)C2CC1C1C=CCC12 (configuration not stated)
inactive: dose: 12.5 mg/kg/injection, schedule: Q01DX009 (ip), vehicle: Klucel (hydroxypropylcellulose) (HPC) 96 % of control | dose: 25.0 mg/kg/injection, schedule: Q01DX009 (ip), vehicle: Klucel (hydroxypropylcellulose) (HPC) 98 % of control | dose: 50.0 mg/kg/injection, schedule: Q01DX009 (ip), vehicle: Klucel (hydroxypropylcellulose) (HPC) 91 % of control | [23] 97 % of control | [20] 94 % of control | [21] 92 % of control | [22] 87 % of control

CCNC(=S)NC1CCCCCCCCCCC1
inactive: [29] 94 % of control | dose: 200.0 mg/kg/injection, schedule: Q04DX002 (ip), vehicle: saline with Tween-80 87 % of control

CC(=O)N1C(=O)N(Cl)C(=O)C1(c1ccc(Cl)cc1)c1ccc(Cl)cc1
inactive: [23] 108 % of control | [17] 92 % of control | [24] 104 % of control | [18] 100 % of control | [25] 102 % of control | [19] 98 % of control

O=C(Nc1ccc2ccccc2c1)c1ccc(F)cc1
inactive: [26] 97 % of control | [27] 102 % of control | [28] 94 % of control

COc1ccccc1C(=O)NN
inactive: dose: 6.25 mg/kg/injection, schedule: Q04DX003 (ip), vehicle: saline 98 % of control | dose: 12.5 mg/kg/injection, schedule: Q04DX003 (ip), vehicle: saline 98 % of control | [5] 106 % of control | [6] 103 % of control | [7] 110 % of control

— PubChem BioAssay AID248 (DTP/NCI, 2004)
